Like-named read-outs stand apart in the source and are kept apart here.
Experiments:
[1] = molecular target: SRC (Homo sapiens (Human), UniProt P12931); test: SelectScreen Kinase Profiling: SRC; assay type: biochemical; settings: tested at 300-350 nM
Excerpt: (§1) Table 4 below highlights the selectivity of a representative compound of the invention, Example 5, against a panel of 50 kinases (assessed using the Invitrogen SelectScreen® Kinase Profiling Service).

[2] = molecular target: MAPKAPK2 (Homo sapiens (Human), UniProt P49137); test: SelectScreen Kinase Profiling: MAPKAPK2; assay type: biochemical; settings: tested at 300-350 nM
Excerpt: as §1

[3] = molecular target: MARK2 (Homo sapiens (Human), UniProt Q7KZI7); test: SelectScreen Kinase Profiling: MARK2; assay type: biochemical; settings: tested at 300-350 nM
Excerpt: as §1

[4] = molecular target: JAK3 (Homo sapiens (Human), UniProt P52333); test: SelectScreen Kinase Profiling: JAK3; assay type: biochemical; settings: tested at 300-350 nM
Excerpt: as §1

[5] = molecular target: AURKA (Aurora A) (Homo sapiens (Human), UniProt O14965); test: SelectScreen Kinase Profiling: AURKA (Aurora A); assay type: biochemical; settings: tested at 300-350 nM
Excerpt: as §1

[6] = molecular target: EPHA2 (Homo sapiens (Human), UniProt P29317); test: SelectScreen Kinase Profiling: EPHA2; assay type: biochemical; settings: tested at 300-350 nM
Excerpt: as §1

[7] = molecular target: FGFR1 (Homo sapiens (Human), UniProt P11362); test: SelectScreen Kinase Profiling: FGFR1; assay type: biochemical; settings: tested at 300-350 nM
Excerpt: as §1

[8] = molecular target: RPS6KA3 (RSK2) (Homo sapiens (Human), UniProt P51812); test: SelectScreen Kinase Profiling: RPS6KA3 (RSK2); assay type: biochemical; settings: tested at 300-350 nM
Excerpt: as §1

[9] = molecular target: Wee-1 kinase (Homo sapiens (Human), UniProt P30291); test: Measurement of Wee-1 kinase activity (ADP-Glo luminescence); assay type: biochemical
Outline: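 Activated Wee-1 preincubated 30 min at RT with compound in Tris/MgCl2 buffer with BSA and DTT, then reacted 1 h at RT with poly(Lys,Tyr 4:1) (2.0 μg/mL) and 30 μM ATP as added aliquot. ADP formed measured by ADP-Glo luminescence; IC50 by non-linear regression of % inhibition.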

[10] = system: SK-LU-1 cells; test: Cell viability (CellTiter-Glo), SK-LU-1; assay type: cell-based; settings: Homo sapiens, SK-LU-1, 144 h; cell viability after 6 days
Method: (§2) All cell lines (HT29, A427, A498, SKLU-1) were obtained from the American Type Culture Collection (ATCC), maintained in the recommended media supplemented with 10% (v/v) FBS, 1% (v/v) Penicillin/streptomycin and kept at 37° C. in a humidified atmosphere with 5% CO2. Cells were seeded in 96 wp format typically at a seeding density of 3500-5000 cells/well and treated after 24 hours with increasing concentration of compound from 0 to 100 μM in ½ log unit increments. Cell viability was assessed after 72 hours (HT29, A427) or after 6 days (SKLU-1, A498) by CellTiter-Glo® as recommended by the manufacturer's instructions (Promega). Analysis and EC50 values were derived using GraphPadPrism.

[11] = molecular target: PDGFRB (PDGFR beta) (Homo sapiens (Human), UniProt P09619); test: SelectScreen Kinase Profiling: PDGFRB (PDGFR beta); assay type: biochemical; settings: tested at 300-350 nM
Excerpt: as §1

[12] = molecular target: INSR (Homo sapiens (Human), UniProt P06213); test: SelectScreen Kinase Profiling: INSR; assay type: biochemical; settings: tested at 300-350 nM
Excerpt: as §1

[13] = molecular target: MAPK8 (JNK1) (Homo sapiens (Human), UniProt P45983); test: SelectScreen Kinase Profiling: MAPK8 (JNK1); assay type: biochemical; settings: tested at 300-350 nM
Excerpt: as §1

[14] = system: panel of 50 kinases; test: Invitrogen SelectScreen Kinase Profiling Service, selectivity over the panel; assay type: biochemical; settings: compared with compounds of the prior art
Excerpt: as §1

[15] = molecular target: SYK (Homo sapiens (Human), UniProt P43405); test: SelectScreen Kinase Profiling: SYK; assay type: biochemical; settings: tested at 300-350 nM
Excerpt: as §1

[16] = molecular target: CSNK1G2 (CK1 gamma 2) (Homo sapiens (Human), UniProt P78368); test: SelectScreen Kinase Profiling: CSNK1G2 (CK1 gamma 2); assay type: biochemical; settings: tested at 300-350 nM
Excerpt: as §1

[17] = molecular target: PIM1 (Homo sapiens (Human), UniProt P11309); test: SelectScreen Kinase Profiling: PIM1; assay type: biochemical; settings: tested at 300-350 nM
Excerpt: as §1

[18] = molecular target: MAP4K4 (HGK) (Homo sapiens (Human), UniProt O95819); test: SelectScreen Kinase Profiling: MAP4K4 (HGK); assay type: biochemical; settings: tested at 300-350 nM
Excerpt: as §1

[19] = system: A498 cells; test: Cell viability (CellTiter-Glo), A498; assay type: cell-based; settings: Homo sapiens, A498, 144 h; cell viability after 6 days
Method: as §2

[20] = molecular target: MET (cMet) (Homo sapiens (Human), UniProt P08581); test: SelectScreen Kinase Profiling: MET (cMet); assay type: biochemical; settings: tested at 300-350 nM
Excerpt: as §1

[21] = molecular target: CSNK2A1 (CK2 alpha 1) (Homo sapiens (Human), UniProt P68400); test: SelectScreen Kinase Profiling: CSNK2A1 (CK2 alpha 1); assay type: biochemical; settings: tested at 300-350 nM
Excerpt: as §1

[22] = molecular target: PHKG2 (Homo sapiens (Human), UniProt P15735); test: SelectScreen Kinase Profiling: PHKG2; assay type: biochemical; settings: tested at 300-350 nM
Excerpt: as §1

[23] = molecular target: PAK4 (Homo sapiens (Human), UniProt O96013); test: SelectScreen Kinase Profiling: PAK4; assay type: biochemical; settings: tested at 300-350 nM
Excerpt: as §1

[24] = molecular target: EGFR (ErbB1) (Homo sapiens (Human), UniProt P00533); test: SelectScreen Kinase Profiling: EGFR (ErbB1); assay type: biochemical; settings: tested at 300-350 nM
Excerpt: as §1

[25] = molecular target: IKBKB (IKK beta) (Homo sapiens (Human), UniProt O14920); test: SelectScreen Kinase Profiling: IKBKB (IKK beta); assay type: biochemical; settings: tested at 300-350 nM
Excerpt: as §1

Sequence of Wee-1 kinase (P30291 whole entry): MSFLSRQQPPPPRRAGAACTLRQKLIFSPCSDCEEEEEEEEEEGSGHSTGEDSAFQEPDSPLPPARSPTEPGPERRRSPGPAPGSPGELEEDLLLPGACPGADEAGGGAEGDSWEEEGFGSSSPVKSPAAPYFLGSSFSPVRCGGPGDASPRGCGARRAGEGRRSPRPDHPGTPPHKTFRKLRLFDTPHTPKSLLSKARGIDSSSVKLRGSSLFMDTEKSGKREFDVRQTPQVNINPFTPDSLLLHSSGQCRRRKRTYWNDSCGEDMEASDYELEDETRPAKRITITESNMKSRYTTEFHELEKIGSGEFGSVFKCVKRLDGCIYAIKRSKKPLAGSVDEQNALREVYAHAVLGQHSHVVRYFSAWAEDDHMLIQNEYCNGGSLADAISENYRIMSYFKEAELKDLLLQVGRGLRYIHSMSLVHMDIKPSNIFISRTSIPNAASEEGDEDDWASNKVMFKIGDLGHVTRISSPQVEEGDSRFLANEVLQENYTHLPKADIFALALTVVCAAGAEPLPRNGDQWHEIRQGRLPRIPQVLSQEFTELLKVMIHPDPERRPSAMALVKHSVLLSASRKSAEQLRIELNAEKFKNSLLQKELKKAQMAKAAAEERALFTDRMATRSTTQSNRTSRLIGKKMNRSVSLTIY
Sequence of IKBKB (IKK beta) (O14920 whole entry): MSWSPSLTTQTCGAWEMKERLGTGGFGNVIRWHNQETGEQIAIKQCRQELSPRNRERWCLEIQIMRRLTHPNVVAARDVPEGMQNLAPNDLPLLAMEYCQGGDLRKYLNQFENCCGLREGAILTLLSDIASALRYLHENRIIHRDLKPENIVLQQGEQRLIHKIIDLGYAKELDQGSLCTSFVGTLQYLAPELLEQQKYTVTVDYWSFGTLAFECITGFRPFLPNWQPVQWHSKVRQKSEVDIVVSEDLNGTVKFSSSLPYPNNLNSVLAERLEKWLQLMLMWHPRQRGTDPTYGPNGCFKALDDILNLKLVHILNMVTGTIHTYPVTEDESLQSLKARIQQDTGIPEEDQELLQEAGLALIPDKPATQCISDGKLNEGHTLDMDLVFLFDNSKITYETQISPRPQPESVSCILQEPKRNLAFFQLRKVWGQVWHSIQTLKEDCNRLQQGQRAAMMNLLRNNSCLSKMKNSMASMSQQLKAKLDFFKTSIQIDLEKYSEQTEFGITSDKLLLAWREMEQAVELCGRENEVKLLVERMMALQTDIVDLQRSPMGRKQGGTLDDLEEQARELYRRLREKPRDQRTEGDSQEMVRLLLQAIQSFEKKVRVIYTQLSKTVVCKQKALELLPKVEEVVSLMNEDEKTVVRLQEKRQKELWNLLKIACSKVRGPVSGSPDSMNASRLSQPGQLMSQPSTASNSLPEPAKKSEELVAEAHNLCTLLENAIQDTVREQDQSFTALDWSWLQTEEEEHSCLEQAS
Sequence of SRC (P12931 whole entry, looked up): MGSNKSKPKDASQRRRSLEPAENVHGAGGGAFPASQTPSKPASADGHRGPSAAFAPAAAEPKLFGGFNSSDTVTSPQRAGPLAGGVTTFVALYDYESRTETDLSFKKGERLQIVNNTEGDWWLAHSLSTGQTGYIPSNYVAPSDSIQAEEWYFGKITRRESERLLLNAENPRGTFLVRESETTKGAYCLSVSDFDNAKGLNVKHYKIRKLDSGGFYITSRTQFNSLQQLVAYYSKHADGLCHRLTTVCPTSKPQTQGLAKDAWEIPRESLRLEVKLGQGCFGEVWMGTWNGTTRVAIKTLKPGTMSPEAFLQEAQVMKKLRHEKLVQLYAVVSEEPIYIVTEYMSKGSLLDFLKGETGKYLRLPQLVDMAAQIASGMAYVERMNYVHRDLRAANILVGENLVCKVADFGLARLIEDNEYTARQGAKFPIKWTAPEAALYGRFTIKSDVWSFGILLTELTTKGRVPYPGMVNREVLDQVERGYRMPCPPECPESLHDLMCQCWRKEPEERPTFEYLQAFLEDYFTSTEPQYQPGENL
Sequence of EPHA2 (P29317 24-976): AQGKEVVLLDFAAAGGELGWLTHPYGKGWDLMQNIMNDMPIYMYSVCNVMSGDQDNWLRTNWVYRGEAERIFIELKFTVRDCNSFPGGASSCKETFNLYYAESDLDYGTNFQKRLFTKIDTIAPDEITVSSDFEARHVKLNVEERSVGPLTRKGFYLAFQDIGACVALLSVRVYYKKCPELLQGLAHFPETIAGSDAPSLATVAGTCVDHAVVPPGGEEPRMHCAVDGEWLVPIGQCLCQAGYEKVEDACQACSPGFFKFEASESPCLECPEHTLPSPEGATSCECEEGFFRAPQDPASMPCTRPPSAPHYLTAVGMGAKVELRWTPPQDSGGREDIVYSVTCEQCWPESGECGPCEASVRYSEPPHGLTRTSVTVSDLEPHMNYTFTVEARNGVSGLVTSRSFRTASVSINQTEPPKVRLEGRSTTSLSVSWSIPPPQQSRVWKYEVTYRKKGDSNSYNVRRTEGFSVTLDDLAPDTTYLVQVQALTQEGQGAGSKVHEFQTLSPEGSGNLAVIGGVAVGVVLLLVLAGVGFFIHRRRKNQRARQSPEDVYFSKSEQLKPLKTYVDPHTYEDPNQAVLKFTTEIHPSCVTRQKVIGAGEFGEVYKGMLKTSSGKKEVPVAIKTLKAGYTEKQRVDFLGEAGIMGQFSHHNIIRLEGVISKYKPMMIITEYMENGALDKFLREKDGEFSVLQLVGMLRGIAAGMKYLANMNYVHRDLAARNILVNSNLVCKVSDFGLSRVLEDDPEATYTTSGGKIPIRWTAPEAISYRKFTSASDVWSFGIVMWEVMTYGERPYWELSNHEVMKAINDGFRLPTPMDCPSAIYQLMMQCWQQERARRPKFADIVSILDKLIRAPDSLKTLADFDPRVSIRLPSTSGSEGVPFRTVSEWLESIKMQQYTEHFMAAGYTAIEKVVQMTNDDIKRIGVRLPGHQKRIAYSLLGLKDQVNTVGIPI
Sequence of PAK4 (O96013 whole entry): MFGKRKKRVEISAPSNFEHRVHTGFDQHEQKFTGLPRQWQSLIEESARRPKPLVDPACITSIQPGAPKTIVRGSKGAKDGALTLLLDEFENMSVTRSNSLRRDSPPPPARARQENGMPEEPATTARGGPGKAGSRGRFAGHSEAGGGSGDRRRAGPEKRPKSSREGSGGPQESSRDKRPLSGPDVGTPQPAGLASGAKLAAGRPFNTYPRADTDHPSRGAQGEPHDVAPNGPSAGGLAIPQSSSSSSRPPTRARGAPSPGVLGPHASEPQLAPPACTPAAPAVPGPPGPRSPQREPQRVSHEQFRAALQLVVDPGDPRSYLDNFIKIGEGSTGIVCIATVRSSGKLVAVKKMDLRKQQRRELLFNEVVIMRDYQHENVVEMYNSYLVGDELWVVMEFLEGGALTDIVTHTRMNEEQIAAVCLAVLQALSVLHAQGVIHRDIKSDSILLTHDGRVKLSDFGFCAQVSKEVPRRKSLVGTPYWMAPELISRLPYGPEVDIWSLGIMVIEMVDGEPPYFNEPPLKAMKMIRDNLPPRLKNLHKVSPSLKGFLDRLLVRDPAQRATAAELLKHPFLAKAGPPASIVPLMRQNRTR
Sequence of MET (cMet) (P08581 25-1390): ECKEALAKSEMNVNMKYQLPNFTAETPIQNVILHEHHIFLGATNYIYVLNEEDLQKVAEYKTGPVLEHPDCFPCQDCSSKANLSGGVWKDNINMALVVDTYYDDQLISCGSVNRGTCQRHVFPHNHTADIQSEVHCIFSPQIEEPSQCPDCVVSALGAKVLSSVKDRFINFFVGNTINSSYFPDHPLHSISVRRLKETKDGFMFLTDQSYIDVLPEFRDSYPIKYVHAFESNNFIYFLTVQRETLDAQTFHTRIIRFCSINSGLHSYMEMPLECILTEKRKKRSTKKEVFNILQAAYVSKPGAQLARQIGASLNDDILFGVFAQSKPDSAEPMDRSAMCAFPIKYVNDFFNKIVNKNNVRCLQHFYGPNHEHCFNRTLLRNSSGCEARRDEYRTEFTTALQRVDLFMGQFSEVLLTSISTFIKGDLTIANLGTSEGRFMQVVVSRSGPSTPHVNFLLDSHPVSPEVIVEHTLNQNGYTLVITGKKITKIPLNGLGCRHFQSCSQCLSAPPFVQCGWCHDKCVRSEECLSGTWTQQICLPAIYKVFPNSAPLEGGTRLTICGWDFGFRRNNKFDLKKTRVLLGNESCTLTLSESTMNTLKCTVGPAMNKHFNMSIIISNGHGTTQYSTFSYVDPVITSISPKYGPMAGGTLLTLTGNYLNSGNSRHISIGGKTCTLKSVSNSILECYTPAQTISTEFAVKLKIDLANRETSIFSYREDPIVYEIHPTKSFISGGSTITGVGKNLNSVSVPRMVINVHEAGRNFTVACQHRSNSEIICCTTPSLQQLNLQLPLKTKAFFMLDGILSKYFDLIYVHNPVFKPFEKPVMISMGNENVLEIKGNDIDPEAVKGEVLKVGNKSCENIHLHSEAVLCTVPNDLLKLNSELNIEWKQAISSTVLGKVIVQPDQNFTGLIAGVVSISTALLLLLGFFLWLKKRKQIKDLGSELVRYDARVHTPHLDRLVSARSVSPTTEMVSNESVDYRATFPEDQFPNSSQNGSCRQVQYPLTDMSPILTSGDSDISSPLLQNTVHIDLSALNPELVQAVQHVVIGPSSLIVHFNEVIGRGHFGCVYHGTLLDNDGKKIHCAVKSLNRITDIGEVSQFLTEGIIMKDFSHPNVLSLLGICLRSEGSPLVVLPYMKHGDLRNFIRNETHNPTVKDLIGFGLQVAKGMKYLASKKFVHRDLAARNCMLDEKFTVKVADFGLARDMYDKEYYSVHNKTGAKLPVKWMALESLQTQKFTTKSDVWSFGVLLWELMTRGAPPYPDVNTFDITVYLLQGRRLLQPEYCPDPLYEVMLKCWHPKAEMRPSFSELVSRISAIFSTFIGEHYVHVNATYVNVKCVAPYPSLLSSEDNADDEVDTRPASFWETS

IC50 ([9]; Table 5, data obtained as described in the experimental section of the current invention, read-out: Wee-1/nM): 1.2 nM
IC50 ([9]; Table 7, data obtained as described in the experimental section of the current invention, read-out: Wee-1/nM): 1.2 nM
IC50 ([9]; read-out: Wee1 IC50): 1.2 nM
EC50 [10]: 12 nM
selectivity against a panel of 50 kinases [14]: greater selectivity
Structure (SMILES): C=CCn1c(=O)c2cnc(Nc3ccc(N4CCN(C)CC4)cc3)nc2n1-c1cccc(N=S(C)(C)=O)n1 [Example 5, 1-(6-{[Dimethyl(oxo)-λ^6-sulfanylidene]amino}pyridine-2-yl)-6-{[4-(4-methylpiperazin-1-yl)phenyl]amino}-2-(prop-2-en-1-yl)-1H,2H,3H-pyrazolo[3,4-d]pyrimidin-3-one]
inhibition of SRC [1]: − (inhibition under 50% (tested at 300-350 nM))
inhibition of MAPKAPK2 [2]: − (inhibition under 50% (tested at 300-350 nM))
inhibition of MARK2 [3]: − (inhibition under 50% (tested at 300-350 nM))
inhibition of JAK3 [4]: − (inhibition under 50% (tested at 300-350 nM))
inhibition of AURKA (Aurora A) [5]: − (inhibition under 50% (tested at 300-350 nM))
inhibition of EPHA2 [6]: − (inhibition under 50% (tested at 300-350 nM))
inhibition of FGFR1 [7]: − (inhibition under 50% (tested at 300-350 nM))
inhibition of RPS6KA3 (RSK2) [8]: − (inhibition under 50% (tested at 300-350 nM))
inhibition of PDGFRB (PDGFR beta) [11]: − (inhibition under 50% (tested at 300-350 nM))
inhibition of INSR [12]: − (inhibition under 50% (tested at 300-350 nM))
inhibition of MAPK8 (JNK1) [13]: − (inhibition under 50% (tested at 300-350 nM))
inhibition of SYK [15]: − (inhibition under 50% (tested at 300-350 nM))
inhibition of CSNK1G2 (CK1 gamma 2) [16]: − (inhibition under 50% (tested at 300-350 nM))
inhibition of PIM1 [17]: − (inhibition under 50% (tested at 300-350 nM))
inhibition of MAP4K4 (HGK) [18]: − (inhibition under 50% (tested at 300-350 nM))
EC50 [19]: 25 nM
inhibition of MET (cMet) [20]: − (inhibition under 50% (tested at 300-350 nM))
inhibition of CSNK2A1 (CK2 alpha 1) [21]: − (inhibition under 50% (tested at 300-350 nM))
inhibition of PHKG2 [22]: − (inhibition under 50% (tested at 300-350 nM))
inhibition of PAK4 [23]: − (inhibition under 50% (tested at 300-350 nM))
inhibition of EGFR (ErbB1) [24]: − (inhibition under 50% (tested at 300-350 nM))
inhibition of IKBKB (IKK beta) [25]: − (inhibition under 50% (tested at 300-350 nM))
